SMILES strings stand for the structures.

In this assay the target is T1, glutaminase (GAC) (Homo sapiens, UniProt O94925).
T1 sequence (O94925 55-598 isoform O94925-3 limits assumed): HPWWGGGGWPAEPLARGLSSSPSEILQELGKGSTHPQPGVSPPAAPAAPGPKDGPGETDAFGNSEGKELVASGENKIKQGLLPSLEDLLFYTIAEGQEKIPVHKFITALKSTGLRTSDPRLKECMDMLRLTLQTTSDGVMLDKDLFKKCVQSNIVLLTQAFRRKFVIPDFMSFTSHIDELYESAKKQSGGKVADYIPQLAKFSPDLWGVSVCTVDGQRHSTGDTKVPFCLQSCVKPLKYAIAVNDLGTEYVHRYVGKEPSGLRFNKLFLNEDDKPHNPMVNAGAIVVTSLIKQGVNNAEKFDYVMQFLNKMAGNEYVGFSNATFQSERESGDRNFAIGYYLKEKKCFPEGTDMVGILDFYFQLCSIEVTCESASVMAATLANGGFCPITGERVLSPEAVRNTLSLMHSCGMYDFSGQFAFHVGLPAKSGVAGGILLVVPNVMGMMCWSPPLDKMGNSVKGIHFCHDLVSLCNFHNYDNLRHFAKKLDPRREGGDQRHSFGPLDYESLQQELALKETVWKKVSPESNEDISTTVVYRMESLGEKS
The assay can be described thus: Glutaminase (GAC) coupled endpoint enzymatic assay (glutamate dehydrogenase/diaphorase/resazurin, Ex544/Em590). The assay is classed as biochemical. The note with it: inhibition of glutaminase, tested in an assay of Example A or Example B; class symbols A-E. From the text: In certain embodiments, exemplary compounds of Formula I include the compounds described in Table 1 and in the Examples. A compound described herein may be tested for its ability to inhibit glutaminase, e.g., by an assay as described in the Examples. For simplicity, the inhibition activity of these compounds is represented as an IC50 tested in an assay of Example A or Example B in Table 1. […] “N/A” refers to compounds wherein the IC50 is unavailable.
In this example, the enzymatic activity of glutaminase is measured through a coupled endpoint assay. Glutamine and phosphate are supplied to GAC at a concentration equal to Km and AC50, respectively, and GAC concentration is adjusted to give a linear reaction for 60 minutes. The glutamate produced is converted to 2-OG by a kinetic excess of glutamate dehydrogenase. This second step is configured for 2× Km for NAD, since excess NAD is inhibitory. However, a kinetic excess of the third coupling enzyme, diaphorase, recycles NAD from NADH to keep the NAD concentration constant during the timecourse of the assay. Diaphorase, also supplied in kinetic excess, oxidizes NADH produced by GDH back to NAD with the concomitant reduction of rezasurin to the highly fluorescent resorufin. Resorufin in measured after the assay is stopped with SDS by Ex544/Em590. A reduction in the signal indicates inhibition of some component of the coupled enzyme system. Prospective hits are counterscreened against GDH/diaphorase alone to remove hits to the coupling enzyme system in a second assay.
2. Buffers 2× Buffer (300 mM NaCl, 100 mM HEPES pH 8.5, 0.1% BSA, 0.5 mM EDTA, 100 mM sodium phosphate pH 8.5) 5× Substrate Mix (1× Buffer final concentration, with 13 mM glutamine, 100 μM resazurin, 50 μg/ml diaphorase) 1.2× Enzyme Mix (1× Buffer final concentration, with 0.875 μg/ml GAC, 1.56 mM NAD, 6.25 units/ml GDH) Stop Mix (6% SDS in ddH2O) Reaction Procedure 1. Add 1 μl compound in 100% DMSO 2. Add 40 μl of Enzyme Mix and incubate for 60 minute at room temperature 3. Add 10 μl of Substrate Mix to start reaction 4. Stop reaction with 25 μl of 6% SDS and read Ex544 Em 590
Take `COc1ccc(CC(=O)Nc2nnc([C@H]3CC[C@H](c4nnc(NC(=O)Cc5ccc(OC)cn5)s4)C3)s2)nc1` [Compound 347, N,N′-(5,5′-((1S,3S)-cyclopentane-1,3-diyl)bis(1,3,4-thiadiazole-5,2-diyl))bis(2-(5-methoxypyridin-2-yl)acetamide)]: the concentration for half-maximal inhibition (IC50) was less than 100 nM.
With `O=C(Cc1cccc(N2CC(F)(F)C2)n1)Nc1nnc([C@H]2CC[C@H](c3nnc(NC(=O)[C@@H](O)c4ccccc4)s3)C2)s1` [Compound 377, (S)—N-(5-((1S,3S)-3-(5-(2-(6-(3,3-difluoroazetidin-1-yl)pyridin-2-yl)acetamido)-1,3,4-thiadiazol-2-yl)cyclopentyl)-1,3,4-thiadiazol-2-yl)-2-hydroxy-2-phenylacetamide] the figure was less than 100 nM.
`O=C(CCc1ccccn1)Nc1nnc([C@H]2CCC[C@H](c3nnc(NC(=O)CCc4ccccn4)s3)C2)s1` [Compound 80, N,N′-(5,5′-((1S,3S)-cyclohexane-1,3-diyl)bis(1,3,4-thiadiazole-5,2-diyl))bis(3-(pyridin-2-yl)propanamide)] had a concentration for half-maximal inhibition (IC50) of 100 to 500 nM.
Then `CC(C)Oc1ccccc1CC(=O)Nc1nnc([C@H]2CCC[C@H](c3nnc(NC(=O)Cc4ccccc4OC(C)C)s3)C2)s1` [Compound 92, N,N′-(5,5′-((1S,3S)-cyclohexane-1,3-diyl)bis(1,3,4-thiadiazole-5,2-diyl))bis(2-(2-isopropoxyphenyl)acetamide)], with 100 to 500 nM; and `O=C(Cc1ccccn1)Nc1nnc([C@H]2CC[C@H](c3nnc(NC(=O)Cc4ccccn4)s3)C2)s1` [Compound 309], with less than 100 nM.
The compound `O=C(Cc1cccc(OC(F)(F)F)c1)Nc1nnc([C@H]2CC[C@H](c3nnc(NC(=O)[C@@H](O)c4ccccc4)s3)C2)s1` [Compound 374, (S)-2-hydroxy-2-phenyl-N-(5-((1S,3S)-3-(5-(2-(3-(trifluoromethoxy)phenyl)acetamido)-1,3,4-thiadiazol-2-yl)cyclopentyl)-1,3,4-thiadiazol-2-yl)acetamide] returned an IC50 of less than 100 nM.
As to `Cc1cc(CC(=O)Nc2nnc([C@H]3CCC[C@H](c4nnc(NC(=O)Cc5cc(C)no5)s4)C3)s2)on1` [Compound 30, N,N′-(5,5′-((1S,3S)-cyclohexane-1,3-diyl)bis(1,3,4-thiadiazole-5,2-diyl))bis(2-(3-methylisoxazol-5-yl)acetamide)], the half-maximal inhibitory concentration (IC50) is less than 100 nM.
With `O=C(Cc1cccc(OC(F)(F)F)c1)Nc1nnc([C@H]2CCC[C@H](c3nnc(NC(=O)Cc4ccccn4)s3)C2)s1` [Compound 364, 2-(pyridin-2-yl)-N-(5-((1S,3S)-3-(5-(2-(3-(trifluoromethoxy)phenyl)acetamido)-1,3,4-thiadiazol-2-yl)cyclohexyl)-1,3,4-thiadiazol-2-yl)acetamide] the figure was less than 100 nM; with `COc1cc(CC(=O)Nc2nnc([C@H]3CCC[C@H](c4nnc(NC(=O)Cc5ccc(F)c(OC)c5)s4)C3)s2)ccc1F` [Compound 78, N,N′-(5,5′-((1S,3S)-cyclohexane-1,3-diyl)bis(1,3,4-thiadiazole-5,2-diyl))bis(2-(4-fluoro-3-methoxyphenyl)acetamide)], 100 to 500 nM.
`O=C(Cc1ccc(N2CC(F)C2)cn1)Nc1nnc([C@H]2CCC[C@H](c3nnc(NC(=O)Cc4ccc(N5CC(F)C5)cn4)s3)C2)s1` [Compound 357] yielded an IC50 of less than 100 nM.
`O=C(Cc1cnccn1)Nc1nnc([C@H]2CCC[C@H](c3nnc(NC(=O)Cc4cnccn4)s3)C2)s1` (relative stereo) [Compound 76] came in with an IC50 of less than 100 nM.
For the compound `N#Cc1cccnc1CC(=O)Nc1nnc([C@H]2CCC[C@H](c3nnc(NC(=O)Cc4ncccc4C#N)s3)C2)s1` (relative stereo) [Compound 113, N,N′-(5,5′-(trans-cyclohexane-1,3-diyl)bis(1,3,4-thiadiazole-5,2-diyl))bis(2-(3-cyanopyridin-2-yl)acetamide)], the IC50 was less than 100 nM.
In the case of `O=C(Cc1ccccn1)Nc1nnc(CC2CCC(Cc3nnc(NC(=O)Cc4ccccn4)s3)CC2)s1` [Compound 2, N,N′-(5,5′-((1R,4R)-cyclohexane-1,4-diylbis(methylene)bis(1,3,4-thiadiazole-5,2-diyl))bis(2-(pyridin-2-yl)acetamide)], the IC50 was 500 to 1000 nM.
With `CC(C)C(=O)Nc1nnc([C@H]2CCC[C@H](c3nnc(NC(=O)C(C)C)s3)C2)s1` (single isomer, unassigned) [Compound 98] the figure was 100 to 500 nM; with `CN1CCC(c2cccc(CC(=O)Nc3nnc([C@H]4CCC[C@H](c5nnc(NC(=O)Cc6cccc(C7CCN(C)CC7)c6)s5)C4)s3)c2)CC1` [Compound 362, N,N′-(5,5′-((1S,3S)-cyclohexane-1,3-diyl)bis(1,3,4-thiadiazole-5,2-diyl))bis(2-(3-(1-methylpiperidin-4-yl)phenyl)acetamide)], less than 100 nM.
With `O=C(Cc1ccccc1OC(F)(F)F)Nc1nnc([C@H]2CCC[C@H](c3nnc(NC(=O)Cc4ccccc4OC(F)(F)F)s3)C2)s1` [Compound 75, N,N′-(5,5′-((1S,3S)-cyclohexane-1,3-diyl)bis(1,3,4-thiadiazole-5,2-diyl))bis(2-(2-(trifluoromethoxy)phenyl)acetamide)] the figure was 100 to 500 nM; with `CC(=O)Nc1ccc(CC(=O)Nc2nnc([C@H]3CCC[C@H](c4nnc(NC(=O)Cc5ccc(NC(C)=O)cc5)s4)C3)s2)cc1` (single isomer, unassigned) [Compound 106], less than 100 nM; with `O=C(Cc1ccccc1Cl)Nc1nnc([C@H]2CCC[C@H](c3nnc(NC(=O)Cc4ccccc4Cl)s3)C2)s1` [Compound 51, N,N′-(5,5′-((1S,3S)-cyclohexane-1,3-diyl)bis(1,3,4-thiadiazole-5,2-diyl))bis(2-(2-chlorophenyl)acetamide)], 100 to 500 nM.
`O=C(Cc1nccs1)Nc1nnc([C@H]2CCC[C@H](c3nnc(NC(=O)Cc4nccs4)s3)C2)s1` [Compound 100] gave an IC50 of less than 100 nM.
With `O=C(Nc1nnc([C@H]2CC[C@H](c3nnc(NC(=O)[C@H](O)c4ccccc4)s3)C2)s1)[C@H](O)c1ccccc1` [Compound 382], the IC50 is less than 100 nM.
Then `COc1ccc(CC(=O)Nc2nnc([C@H]3CCC[C@H](c4nnc(NC(=O)Cc5cccc(N6CC(F)(F)C6)n5)s4)C3)s2)cn1` [Compound 359], with less than 100 nM; and `COCCOc1ccnc(CC(=O)Nc2nnc([C@H]3CCC[C@H](c4nnc(NC(=O)Cc5cc(OCCOC)ccn5)s4)C3)s2)c1` [Compound 353], with less than 100 nM; and `CN(C)c1ccc(CC(=O)Nc2nnc([C@H]3CCC[C@H](c4nnc(NC(=O)Cc5ccc(N(C)C)cc5)s4)C3)s2)cc1` [Compound 31, N,N′-(5,5′-((1S,3S)-cyclohexane-1,3-diyl)bis(1,3,4-thiadiazole-5,2-diyl))bis(2-(4-(dimethylamino)phenyl)acetamide)], with less than 100 nM.
As for `COc1ccccc1CC(=O)Nc1nnc([C@H]2CCC[C@H](c3nnc(NC(=O)Cc4ccccc4OC)s3)C2)s1` (single isomer, unassigned) [Compound 70], the IC50 is less than 100 nM.
With `CCCC(=O)Nc1nnc([C@H]2CCC[C@H](c3nnc(NC(=O)CCC)s3)C2)s1` [Compound 37, N,N′-(5,5′-((1S,3S)-cyclohexane-1,3-diyl)bis(1,3,4-thiadiazole-5,2-diyl))dibutyramide] the figure was 100 to 500 nM; with `O=C(Cc1cc2ccccc2[nH]1)Nc1nnc([C@H]2CCC[C@H](c3nnc(NC(=O)Cc4cc5ccccc5[nH]4)s3)C2)s1` [Compound 34], 100 to 500 nM; with `Cc1cccc(CC(=O)Nc2nnc([C@H]3CCC[C@H](c4nnc(NC(=O)Cc5cccc(C)c5)s4)C3)s2)c1` [Compound 111, N,N′-(5,5′-((1S,3S)-cyclohexane-1,3-diyl)bis(1,3,4-thiadiazole-5,2-diyl))bis(2-m-tolylacetamide)], 100 to 500 nM.

For the origin of these results see patent US10087172B2, “Compounds and their methods of use” (AGIOS PHARMACEUTICALS, INC, priority 2012, dated 2018).
